Measurements from PMC7340670, “Phase I study of TAS-115, a novel oral multi-kinase inhibitor, in patients with advanced solid tumors” (Investigational New Drugs, 2019).
pIC50: −log10 of the molar value. Entries after “also recorded” stand apart in the source; their conditions may differ. Like-named read-outs stand apart in the source and are kept apart here.

What was measured:
[1] = Plasma pharmacokinetics in the phase I study; assay type: in vivo, human; settings: for half-life / AUC(0-t) / Cmax / Tmax: human, plasma; for half-life: read-out: t1/2 Mean (SD) (converted); for AUC(0-t): read-out: AUC0-24 Mean (SD); for Cmax: read-out: Cmax Mean (SD)
Procedure: Blood samples were collected for plasma PK assessments pre-dosing and at 1, 2, 3, 4, 6, 8, 12, and 24 h after TAS-115 administration on Days 1 and 8 of cycle 1 in part 1, and on Days 1, 8, and 19 of cycle 1 in part 2 (only pre-dosing on Day 8). TAS-115 concentrations were measured by validated liquid chromatography-tandem mass spectrometry. A preliminary assessment of the effect of food on the PK profile was performed. Blood samples after administration under fed and empty stomach conditions were collected from the first six patients in the expansion part. Pharmacokinetic parameters were determined using non-compartmental analyses (Phoenix® WinNonlin® version 6.4; Certara LP, Princeton, NJ, USA).

advanced solid tumors = experiment: Antitumor effect by RECIST Version 1.1; assay type: in vivo, human
Procedure: (§1) The secondary objectives were to investigate the PK profile, safety, tolerability, antitumor activity, and pharmacodynamic profile of TAS-115. AEs were graded according to the CTCAE Version 4.03. Response was assessed by radiologic imaging at 6 and 12 weeks from the first dose, and every 12 weeks thereafter. Antitumor effect was evaluated by investigators using Response Evaluation Criteria in Solid Tumors (RECIST) Version 1.1 [17]. If a patient had bone lesions, evaluation was performed using bone scintigraphy and bone scan index (BSI) were calculated by BONENAVI® software (FUJIFILM Toyama Chemical, Co., Ltd., Japan). BSI response was defined as ≥30% reduction in BSI [18]. An exploratory objective was to assess changes in protein levels of soluble MET (sMET), VEGF, and soluble VEGFR2 (sVEGFR2) in plasma, and HGF in serum as pharmacodynamic markers.

bone lesions = experiment: Bone scintigraphy / bone scan index (BSI) response; assay type: in vivo, human
Procedure: as §1

soluble MET (sMET) = experiment: Pharmacodynamic marker: sMET in plasma; assay type: in vivo, human
Procedure: as §1
For pharmacodynamic analyses, blood samples were collected on Days 1 and 22 (before dosing, each) in part 1, and Days 1 (pre-dosing) and 19 (pre- and post 6 h) in part 2 and the expansion part. Patients provided written informed consent to provide blood samples for exploratory pharmacodynamics assessments.
The planned sample size was up to 90 patients, and it was not based on the formal calculation because of experimental phase I trial. For pharmacodynamics parameters, P values were calculated using the paired t-test for measured values from merged doses. The data cut-off date for the analyses presented in this report was August 19, 2018. This study is registered with Japan Pharmaceutical Information Center Clinical Trial registry, number JapicCTI-132333.

VEGF = experiment: Pharmacodynamic marker: VEGF in plasma; assay type: in vivo, human
Procedure: as §1
(§2) For pharmacodynamic analyses, blood samples were collected on Days 1 and 22 (before dosing, each) in part 1, and Days 1 (pre-dosing) and 19 (pre- and post 6 h) in part 2 and the expansion part. […]
(§3) The planned sample size was up to 90 patients, and it was not based on the formal calculation because of experimental phase I trial. For pharmacodynamics parameters, P values were calculated using the paired t-test for measured values from merged doses. […]

soluble VEGFR2 (sVEGFR2) = experiment: Pharmacodynamic marker: sVEGFR2 in plasma; assay type: in vivo, human
Procedure: as §1, §2, §3

recombinant MET = system: recombinant MET; design: method as in PMID 24140932; settings: read-out: IC50 against recombinant MET; cited from earlier work
[2] = system: tumor growth and abnormal bone remodeling; design: method as in PMID 24140932, PMID 27539855, PMID 27736957; settings: cited from earlier work
[3] = system: osteoclast differentiation; design: method as in data on file; settings: in vitro; ref data on file; cited from earlier work
[4] = system: AKT and ERK1/2 phosphorylation; design: method as in PMID 27539855, PMID 27736957; settings: mouse osteoclasts in vitro; cited from earlier work
[5] = expansion part, 650 mg, six patients, not statistically significant
[6] = oral, 200 mg/day, Part 1, Day 1 (single administration), 200 mg/day, n=3
[7] = oral, 200 mg/day, Part 1, Day 8 (multiple administration), 200 mg/day, n=3
[8] = oral, 300 mg/day, Part 1, Day 1 (single administration), 300 mg/day, n=3
[9] = oral, 300 mg/day, Part 1, Day 8 (multiple administration), 300 mg/day, n=2
[10] = oral, 450 mg/day, Part 1, Day 1 (single administration), 450 mg/day, n=3
[11] = oral, 450 mg/day, Part 1, Day 8 (multiple administration), 450 mg/day, n=3
[12] = oral, 650 mg/day, Expansion part, Empty Stomach, 650 mg/day, n=6
[13] = oral, 650 mg/day, Expansion part, Fed, 650 mg/day, n=6
[14] = oral, 650 mg/day, Part 1, Day 1 (single administration), 650 mg/day, n=6
[15] = oral, 650 mg/day, Part 1, Day 8 (multiple administration), 650 mg/day, n=5
[16] = oral, 650 mg/day, Part 2, Day 1 (single administration), 650 mg/day, n=6
[17] = oral, 650 mg/day, Part 2, Day 19 (multiple administration), 650 mg/day, n=6
[18] = oral, 800 mg/day, Part 1, Day 1 (single administration), 800 mg/day, n=6
[19] = oral, 800 mg/day, Part 1, Day 8 (multiple administration), 800 mg/day, n=6

Compound: CNC(=O)c1cc2c(Oc3ccc(NC(=S)NC(=O)Cc4ccccc4)cc3F)ccnc2cc1OC [TAS-115]
- dose dependence of AUC0–24 / systemic exposure ([1]; after single administration, part 1): increased almost dose-proportionally; also recorded: increased dose-proportionally over the tested range from 200 mg to 650 mg
- geometric mean ratio (90% CI) of AUC0–24, fed to empty stomach condition [1, 5]: 0.812 (0.414–1.593)
- geometric mean ratio (90% CI) of Cmax, fed to empty stomach condition [1, 5]: 0.545 (0.243–1.224)
- half-life ([1]; oral, 200 mg/day, Part 1, Day 1 (single administration), 200 mg/day, n=2): 15.2 h
- AUC(0-t) [1, 6]: 20000 ng·h/mL
- Cmax [1, 6]: 2490 ng/mL
- Tmax ([1]; oral, 200 mg/day, Part 1, Day 1 (single administration), 200 mg/day, n=3, read-out: tmax Median): 1 h
- AUC(0-t) [1, 7]: 22700 ng·h/mL
- Cmax [1, 7]: 2950 ng/mL
- half-life [1, 7]: 26.6 h
- Tmax ([1]; oral, 200 mg/day, Part 1, Day 8 (multiple administration), 200 mg/day, n=3, read-out: tmax Median): 1 h
- AUC(0-t) [1, 8]: 23200 ng·h/mL
- Cmax [1, 8]: 3500 ng/mL
- half-life [1, 8]: 20.4 h
- Tmax ([1]; oral, 300 mg/day, Part 1, Day 1 (single administration), 300 mg/day, n=3, read-out: tmax Median): 1 h
- AUC(0-t) [1, 9]: 32500 ng·h/mL
- Cmax [1, 9]: 3900 ng/mL
- half-life [1, 9]: 15.9 h
- Tmax ([1]; oral, 300 mg/day, Part 1, Day 8 (multiple administration), 300 mg/day, n=2, read-out: tmax Median): 1.5 h
- AUC(0-t) [1, 10]: 28800 ng·h/mL
- Cmax [1, 10]: 4540 ng/mL
- half-life [1, 10]: 12.6 h
- Tmax ([1]; oral, 450 mg/day, Part 1, Day 1 (single administration), 450 mg/day, n=3, read-out: tmax Median): 1 h
- AUC(0-t) [1, 11]: 37000 ng·h/mL
- Cmax [1, 11]: 4310 ng/mL
- half-life [1, 11]: 11.4 h
- Tmax ([1]; oral, 450 mg/day, Part 1, Day 8 (multiple administration), 450 mg/day, n=3, read-out: tmax Median): 1 h
- AUC(0-t) [1, 12]: 39300 ng·h/mL
- Cmax [1, 12]: 4760 ng/mL
- Tmax ([1]; oral, 650 mg/day, Expansion part, Empty Stomach, 650 mg/day, n=6, read-out: tmax Median): 2 h
- AUC(0-t) [1, 13]: 41700 ng·h/mL
- Cmax [1, 13]: 3900 ng/mL
- Tmax ([1]; oral, 650 mg/day, Expansion part, Fed, 650 mg/day, n=6, read-out: tmax Median): 5 h
- AUC(0-t) [1, 14]: 59700 ng·h/mL
- Cmax [1, 14]: 7700 ng/mL
- half-life [1, 14]: 10.3 h
- Tmax ([1]; oral, 650 mg/day, Part 1, Day 1 (single administration), 650 mg/day, n=6, read-out: tmax Median): 1 h
- half-life ([1]; oral, 650 mg/day, Part 1, Day 8 (multiple administration), 650 mg/day, n=4): 8.7 h
- AUC(0-t) [1, 15]: 54500 ng·h/mL
- Cmax [1, 15]: 5040 ng/mL
- Tmax ([1]; oral, 650 mg/day, Part 1, Day 8 (multiple administration), 650 mg/day, n=5, read-out: tmax Median): 2 h
- half-life ([1]; oral, 650 mg/day, Part 2, Day 1 (single administration), 650 mg/day, n=5): 14.5 h
- AUC(0-t) [1, 16]: 49800 ng·h/mL
- Cmax [1, 16]: 7510 ng/mL
- Tmax ([1]; oral, 650 mg/day, Part 2, Day 1 (single administration), 650 mg/day, n=6, read-out: tmax Median): 1 h
- AUC(0-t) [1, 17]: 56700 ng·h/mL
- Cmax [1, 17]: 7370 ng/mL
- half-life [1, 17]: 16.8 h
- Tmax ([1]; oral, 650 mg/day, Part 2, Day 19 (multiple administration), 650 mg/day, n=6, read-out: tmax Median): 1 h
- AUC(0-t) [1, 18]: 37800 ng·h/mL
- Cmax [1, 18]: 4910 ng/mL
- half-life [1, 18]: 13.7 h
- Tmax ([1]; oral, 800 mg/day, Part 1, Day 1 (single administration), 800 mg/day, n=6, read-out: tmax Median): 1 h
- AUC(0-t) [1, 19]: 44600 ng·h/mL
- Cmax [1, 19]: 5220 ng/mL
- half-life [1, 19]: 12.8 h
- Tmax ([1]; oral, 800 mg/day, Part 1, Day 8 (multiple administration), 800 mg/day, n=6, read-out: tmax Median): 1.5 h
- Tmax ([1]; po, oral administration, across dose levels, read-out: median time to maximum concentration (tmax)): 1 to 2 h
- accumulation ([1]; multiple dosing for 8 days, part 1): no accumulation
- antitumor effect in a patient with bladder cancer with metastases (advanced solid tumors; 650 mg 5-on/2-off discontinued at week 7, after discontinuation without further antitumor treatment): the lung metastatic lesions disappeared
- complete or partial response by RECIST evaluation (advanced solid tumors; all parts): no patients who showed complete or partial response
- minor tumor shrinkage of target lesions (advanced solid tumors; patients determined as having progressive disease (PD)): four patients
- antitumor effect in a patient with CRPC with multiple bone metastases (bone lesions; 650 mg 5-on/2-off): notable improvement was observed in the bone scan
- antitumor effect in a patient with epithelioid sarcoma with multiple metastases (bone lesions; 650 mg 5-on/2-off, 6 weeks after the first administration): marked decrease of hot spots on bone scans and reduction in fluorodesoxyglucose uptake
- BSI response rate (≥30% reduction in BSI) (bone lesions; patients with bone lesions, 14 of 25): 56.0%
- change of sMET in plasma (soluble MET (sMET); Day 19, 6 h after administration, part 2 and expansion part, P = .0055): significant increase
- change of sMET in plasma (soluble MET (sMET); Day 19 pre-dose, part 2 and expansion part, P = .0015): significant increase
- change of sMET in plasma (soluble MET (sMET); Day 22 in part 1, P = .0031): significant increase
- change of VEGF (VEGF; 6 h post-dose on Day 19 compared with pre-dose on Day 19, P = .0844): increase
- marked alterations of VEGF from Day 1 (VEGF; in vivo): not observed
- change of VEGFR2 (soluble VEGFR2 (sVEGFR2); 6 h post-dose on Day 19 compared with pre-dose on Day 19, P = .0204): decrease
- marked alterations of sVEGFR2 from Day 1 (soluble VEGFR2 (sVEGFR2); in vivo): not observed
- pIC50 (recombinant MET): 7.49
- antitumor effect in mouse xenograft models [2]: potent antitumor effect, inhibiting tumor growth and abnormal bone remodeling
- osteoclast differentiation induced by M-CSF and RANKL [3]: dose-dependent inhibition
- HGF, and VEGF-induced phosphorylation of signaling factors (AKT and ERK1/2) [4]: suppressed
